Test results published in PubChem BioAssay AID1224921 (Broad Institute, 2016).
Activity calls are given as the source filed them. No rule for the calls is given here.

Tested on: Clostridioides difficile clinical isolate growth, OD600, 24 h
Assay: C. difficile growth inhibition, confirmation, 4-point retest (AID 1224921)

Row | Compound | AC50
1 | CO[C@@H]1CN(C)C(=O)c2ccc(NC(=O)C3CCOCC3)cc2OC[C@@H](C)N(C(=O)Nc2ccc(C(F)(F)F)cc2)C[C@H]1C | 16.1 µM
2 | O=C(C[C@H]1CC[C@@H]2[C@H](COC[C@H](O)CN2C(=O)Nc2ccc(C(F)(F)F)cc2)O1)NC1Cc2ccccc2C1 | 6.36 µM
3 | C[C@@H]1CN([C@@H](C)CO)C(=O)c2cccc(NC(=O)Nc3ccc(C(F)(F)F)cc3)c2O[C@@H]1CN(C)C(=O)Nc1ccc(F)cc1 | 30 µM
4 | O=C(C[C@H]1CC[C@@H]2[C@H](COC[C@@H](O)CN2C(=O)Nc2ccc(Cl)c(Cl)c2)O1)NCc1ccncc1 | 4.06 µM
5 | COc1ccccc1S(=O)(=O)N[C@@H]1C=C[C@@H](CC(=O)N2CCCCC2)O[C@H]1CO | > 60 µM (inactive)
6 | CO[C@@H](CN(C)C(=O)C1CCOCC1)[C@H](C)CN(C(=O)Nc1ccc(C(F)(F)F)cc1)[C@@H](C)CO | 3.45 µM
7 | CO[C@H]1CN(C)C(=O)c2ccc(NC(=O)c3nc4ccccc4s3)cc2OC[C@H](C)N(Cc2ccncc2)C[C@@H]1C | > 60 µM (inactive)
8 | COc1cccc(C#Cc2ccc([C@@H]3[C@@H](C#N)N(C(=O)C4CCC4)[C@H]3CO)cc2)c1 | > 60 µM (inactive)
9 | O=C(C[C@@H]1CC[C@@H]2[C@H](COC[C@H](O)CN2C(=O)Nc2ccc(Cl)c(Cl)c2)O1)NC1CCC1 | 7.33 µM
10 | O=C(C[C@@H]1CC[C@@H]2[C@H](COC[C@H](O)CN2C(=O)Nc2cc(Cl)cc(Cl)c2)O1)NCC1CC1 | 16.9 µM
11 | O=C(NCC[C@H]1CC[C@@H](NC(=O)c2cccnc2)[C@@H](CO)O1)Nc1ccc(C(F)(F)F)cc1 | 2.9 µM
12 | O=C(C[C@H]1CC[C@H]2[C@@H](COC[C@@H](O)CN2C(=O)Nc2ccc(C(F)(F)F)cc2)O1)NC1Cc2ccccc2C1 | 7.54 µM
13 | CC(=O)N[C@@H]1CC[C@H](CCNC(=O)Nc2ccc(C(F)(F)F)cc2)O[C@H]1CO | 11.8 µM
14 | O=C(NCC[C@H]1CC[C@H](NC(=O)C2CC2)[C@H](CO)O1)Nc1ccc(C(F)(F)F)cc1 | 16 µM
15 | CO[C@H](CN(C)C(=O)C1CCOCC1)[C@H](C)CN(C(=O)Nc1ccc(C(F)(F)F)cc1)[C@@H](C)CO | 4.13 µM
16 | COc1ccc(CN(C)C[C@@H]2OCCCC[C@H](C)Oc3ccc(NC(=O)Nc4ccc(C(F)(F)F)cc4)cc3C(=O)N([C@H](C)CO)C[C@@H]2C)cc1 | > 60 µM (inactive)
17 | C[C@H](NC(=O)C[C@@H]1CC[C@@H]2[C@H](COC[C@H](O)CN2C(=O)Nc2cccc(Cl)c2)O1)c1ccccc1 | 14.4 µM
18 | CO[C@H](CN(C)Cc1cc(F)ccc1F)[C@H](C)CN(C(=O)Nc1ccc(C(F)(F)F)cc1)[C@@H](C)CO | 7.48 µM
19 | CO[C@H]1CN(C)C(=O)c2ccc(NC(=O)Nc3ccccc3)cc2OC[C@@H](C)NC[C@@H]1C | > 60 µM (inactive)
20 | CCNC(=O)C[C@H]1CC[C@H]2[C@@H](COC[C@@H](O)CN2C(=O)Nc2ccc(Cl)c(Cl)c2)O1 | 3.9 µM
21 | COc1ccc(NC(=O)Nc2cccc3c2O[C@H](CN(C)Cc2ccc(C(F)(F)F)cc2)[C@H](C)CN([C@@H](C)CO)C3=O)cc1 | 15.9 µM
22 | C[C@H]1CCCCO[C@H](CN(C)Cc2ccccc2)[C@@H](C)CN([C@@H](C)CO)C(=O)c2cc(NC(=O)Nc3ccc(C(F)(F)F)cc3)ccc2O1 | 18.2 µM
23 | CO[C@H](CN(C)S(=O)(=O)c1cn(C)cn1)[C@@H](C)CN(C(=O)Nc1ccc(C(F)(F)F)cc1)[C@H](C)CO | 2.16 µM
24 | N#C[C@@H]1[C@H](c2ccc(C#Cc3ccc(F)cc3)cc2)[C@@H](CO)N1C(=O)C1CCC1 | > 60 µM (inactive)

Row | Compound | AC50
25 | C[C@H](CO)N1C[C@H](C)[C@H](CN(C)C(=O)Nc2ccccc2)Oc2c(NC(=O)Nc3ccc(C(F)(F)F)cc3)cccc2C1=O | 26.5 µM
26 | O=C(C[C@H]1CC[C@H]2[C@@H](COC[C@@H](O)CN2C(=O)Nc2ccc(Cl)c(Cl)c2)O1)NCc1ccccc1 | 3.72 µM
27 | CNC(=O)C[C@@H]1CC[C@@H]2[C@H](COC[C@H](O)CN2C(=O)Nc2ccc(Cl)c(Cl)c2)O1 | 3.06 µM
28 | C[C@H]1CCCCO[C@@H](CN(C)CC2CCCCC2)[C@@H](C)CN([C@@H](C)CO)C(=O)c2cc(NC(=O)Nc3ccc(C(F)(F)F)cc3)ccc2O1 | 17.3 µM
29 | CO[C@H]1CN(C)C(=O)c2cc(NC(C)=O)ccc2OC[C@@H](C)N(CCc2ccccc2)C[C@H]1C | > 60 µM (inactive)
30 | CCC(=O)N[C@@H]1CC[C@@H](CCNC(=O)Nc2ccc(C(F)(F)F)cc2)O[C@@H]1CO | 3.9 µM
31 | CO[C@H](CN(C)C(=O)C1CCOCC1)[C@@H](C)CN(C(=O)Nc1ccc(C(F)(F)F)cc1)[C@H](C)CO | 0.831 µM
32 | C[C@H]1CCCCO[C@H](CN(C)CC2CC2)[C@@H](C)CN([C@@H](C)CO)C(=O)c2cc(NC(=O)Nc3ccc(C(F)(F)F)cc3)ccc2O1 | 5.12 µM
33 | O=C(C[C@H]1CC[C@@H]2[C@H](COC[C@H](O)CN2C(=O)Nc2ccc(C(F)(F)F)cc2)O1)NCC1CC1 | 3.63 µM
34 | COc1cccc(C#Cc2cnc3c(c2)C(=O)N([C@H](C)CO)C[C@H](C)[C@@H](CN(C)C)O3)c1 | 33.2 µM
35 | CNC[C@@H]1OCCCC[C@H](C)Oc2ccc(NC(=O)Nc3ccc(C(F)(F)F)cc3)cc2C(=O)N([C@H](C)CO)C[C@@H]1C | 19.2 µM
36 | N#C[C@H]1[C@@H](c2ccc(C#Cc3cccc(F)c3)cc2)[C@H](CO)N1C(=O)C1CCC1 | 26.4 µM
37 | CCNC(=O)C[C@@H]1CC[C@H]2[C@@H](COC[C@@H](O)CN2C(=O)Nc2ccc(C(F)(F)F)cc2)O1 | 10.4 µM
38 | CO[C@@H](CN(C)S(=O)(=O)c1cn(C)cn1)[C@H](C)CN(C(=O)Nc1ccc(C(F)(F)F)cc1)[C@@H](C)CO | 2.44 µM
39 | C[C@H](CO)N1C[C@H](C)[C@H](CN(C)CC2CCCCC2)Oc2ccc(NC(=O)Nc3ccc(C(F)(F)F)cc3)cc2C1=O | 15.2 µM
40 | O=C(C[C@@H]1CC[C@H]2[C@@H](COC[C@H](O)CN2C(=O)Nc2ccc(Cl)c(Cl)c2)O1)NCc1ccc(Cl)cc1 | 2.61 µM
41 | O=C(C[C@H]1CC[C@H]2[C@@H](COC[C@@H](O)CN2C(=O)c2cnccn2)O1)NCc1ccc(Cl)cc1 | > 60 µM (inactive)
42 | CNC[C@@H]1OCCCC[C@H](C)Oc2ccc(NC(=O)Nc3ccc(C(F)(F)F)cc3)cc2C(=O)N([C@H](C)CO)C[C@H]1C | 19.4 µM
43 | CO[C@H]1CN(C)C(=O)c2cc(NC(C)=O)ccc2OC[C@@H](C)N(Cc2nccs2)C[C@@H]1C | > 60 µM (inactive)
44 | CCNC(=O)C[C@@H]1CC[C@@H]2[C@H](COC[C@H](O)CN2C(=O)Nc2ccc(C(F)(F)F)cc2)O1 | 11.8 µM
45 | Cc1noc(C)c1NC(=O)Nc1cccc2c1O[C@H](CN(C)Cc1ccc(Oc3ccccc3)cc1)[C@H](C)CN([C@@H](C)CO)C2=O | 9.38 µM
46 | CCCNC(=O)C[C@@H]1CC[C@H]2[C@@H](COC[C@@H](O)CN2C(=O)Nc2ccc(Cl)c(Cl)c2)O1 | 2.59 µM
47 | O=C(C[C@@H]1CC[C@H]2[C@@H](COC[C@@H](O)CN2C(=O)Nc2ccc(C(F)(F)F)cc2)O1)NCCc1ccncc1 | 4.89 µM
48 | O=C(C[C@@H]1CC[C@@H]2[C@H](COC[C@@H](O)CN2C(=O)Nc2cc(Cl)cc(Cl)c2)O1)N1CCOCC1 | 14.2 µM

Row | Compound | AC50
49 | CC(=O)N[C@H]1CC[C@@H](CCNC(=O)Nc2ccc(C(F)(F)F)cc2)O[C@@H]1CO | 10.8 µM
50 | CO[C@@H](CN(C)C(=O)C1CCOCC1)[C@@H](C)CN(C(=O)Nc1ccc(C(F)(F)F)cc1)[C@H](C)CO | 6.17 µM
51 | O=C(NCC[C@H]1CC[C@@H](NC(=O)C2CC2)[C@@H](CO)O1)Nc1ccc(C(F)(F)F)cc1 | 1.69 µM
52 | CO[C@H](CN(C)C(=O)C1CCOCC1)[C@H](C)CN(C(=O)Nc1ccc(C(F)(F)F)cc1)[C@H](C)CO | 5.96 µM
53 | O=C(C[C@H]1CC[C@H]2[C@@H](COC[C@H](O)CN2C(=O)Nc2ccc(Cl)c(Cl)c2)O1)NCc1ccc(Cl)cc1 | 1.07 µM
54 | O=C(C[C@H]1CC[C@@H]2[C@H](COC[C@H](O)CN2C(=O)Nc2ccc(C(F)(F)F)cc2)O1)NCC1CCCCC1 | 1.21 µM
55 | CNC(=O)C[C@@H]1CC[C@@H]2[C@H](COC[C@@H](O)CN2C(=O)Nc2ccc(Cl)c(Cl)c2)O1 | 2.31 µM
56 | O=C(C[C@H]1CC[C@@H]2[C@H](COC[C@H](O)CN2C(=O)Nc2ccc(Cl)c(Cl)c2)O1)NCc1ccc(F)cc1 | 1.91 µM
57 | O=C(C[C@H]1C[C@H]2c3cc(NC(=O)Nc4ccccc4)ccc3O[C@H]2[C@H](CO)O1)NC1CCCC1 | > 60 µM (inactive)
58 | CCCN(C)C[C@@H]1OCCCC[C@H](C)Oc2ccc(NC(=O)Nc3ccc(C(F)(F)F)cc3)cc2C(=O)N([C@H](C)CO)C[C@@H]1C | 4.61 µM
59 | C[C@@H]1CN([C@H](C)CO)S(=O)(=O)c2ccc(C#Cc3ccccc3)cc2O[C@H]1CN(C)C | 28.4 µM
60 | C[C@H]1CN([C@@H](C)CO)C(=O)c2cccc(NC(=O)c3ccncc3)c2O[C@@H]1CN(C)Cc1ccc(-c2ccccc2)cc1 | 1.74 µM
61 | C[C@@H](NC(=O)C[C@H]1CC[C@@H]2[C@H](COC[C@H](O)CN2C(=O)Nc2cc(Cl)cc(Cl)c2)O1)c1ccccc1 | 10.9 µM
62 | O=C(C[C@H]1CC[C@@H]2[C@H](COC[C@H](O)CN2C(=O)Nc2ccc(Cl)c(Cl)c2)O1)NCc1ccccc1 | < 1.95 µM
63 | O=C(C[C@@H]1CC[C@H]2[C@@H](COC[C@H](O)CN2C(=O)Nc2ccc(Cl)c(Cl)c2)O1)NCc1ccc(F)cc1 | 1.3 µM
64 | COc1ccc(CN(C)C[C@H]2OCCCC[C@@H](C)Oc3ccc(NC(=O)Nc4cccc5ccccc45)cc3C(=O)N([C@@H](C)CO)C[C@@H]2C)cc1 | 27.4 µM
65 | C[C@@H]1CCCCO[C@@H](CN(C)Cc2ccccc2)[C@H](C)CN([C@@H](C)CO)C(=O)c2cc(NC(=O)Nc3ccc(F)cc3)ccc2O1 | > 16 µM (inactive)
66 | CCNC(=O)C[C@H]1CC[C@H]2[C@@H](COC[C@@H](O)CN2C(=O)Nc2ccc(C(F)(F)F)cc2)O1 | 2.77 µM
67 | O=C(C[C@H]1CC[C@H]2[C@@H](COC[C@H](O)CN2C(=O)Nc2cc(Cl)cc(Cl)c2)O1)N1CCOCC1 | 4.04 µM
68 | O=C(C[C@H]1CC[C@H]2[C@@H](COC[C@@H](O)CN2C(=O)Nc2cc(Cl)cc(Cl)c2)O1)N1CCOCC1 | 9.57 µM
69 | C[C@@H]1CCCCO[C@H](CN(C)CC2CCCCC2)[C@H](C)CN([C@@H](C)CO)C(=O)c2cc(NS(=O)(=O)c3ccc(Cl)cc3)ccc2O1 | 14.6 µM
70 | O=C(C[C@H]1CC[C@H]2[C@@H](COC[C@H](O)CN2S(=O)(=O)c2ccc(F)cc2)O1)NCC1CCCCC1 | 15.4 µM
71 | O=C(C[C@@H]1C[C@H]2c3cc(NC(=O)NC4CCCC4)ccc3O[C@H]2[C@H](CO)O1)NCc1ccc2c(c1)OCO2 | > 60 µM (inactive)
72 | CCCNC(=O)C[C@@H]1CC[C@H]2[C@@H](COC[C@H](O)CN2C(=O)Nc2ccc(Cl)c(Cl)c2)O1 | 5.98 µM
